Patent US11718631B2, “Sulphonamides and compositions thereof for treating conditions associated with NLRP activity” (Novartis AG, priority 2017, dated 2023)
Where two headings read alike, the source gives them in different places.

Target: T1, NLRP3 (Homo sapiens, UniProt Q96P20)
T1 construct: IL-1β Production in PMA-Differentiated THP-1 Cells Stimulated with Gramicidin; host or cells: THP-1 cells, PMA-differentiated
Assay: IL-1β production in PMA-differentiated THP-1 cells stimulated with gramicidin (hTHP-1 assay)
Format: cell-based
Details: hTHP-1 assay containing 2% fetal bovine serum, read-out: NLRP3 Antagonist, human THP1 NLRP3, IL-1b, Normalized: GeoMean IC50
Protocol: IL-1β Production in PMA-Differentiated THP-1 Cells Stimulated with Gramicidin.
THP-1 cells were purchased from the American Type Culture Collection and sub-cultured according to instructions from the supplier. […] Prior to the experiment THP-1 were treated with PMA (Phorbol 12-myristate 13-acetate) (20 ng/ml) for 16-18 hours. On the day of the experiment the media was removed and adherent cells were detached with trypsin for 5 minutes. […] A vehicle only control was run concurrently with each experiment. Final DMSO concentration was 0.38%.
THP-1 cells were purchased from the American Type Culture Collection and sub-cultured according to instructions from the supplier. […] Prior to the experiment THP-1 were treated with PMA (Phorbol 12-myristate 13-acetate) (20 ng/ml) for 16-18 hours. Compounds were dissolved in dimethyl sulfoxide (DMSO) to generate a 30 mM stock. On the day of the experiment the media was removed and adherent cells were detached with trypsin for 5 minutes. […] Final DMSO concentration was at 0.37%. Cells were incubated with compounds for 1 hour and then stimulated with gramicidin (5 μM) (Enzo) for 2 hours. Plates were then centrifuged at 340 g for 5 min. Cell free supernatant (40 μL) was collected using a 96-channel PlateMaster (Gilson) and the production of IL-1p was evaluated by HTRF (cisbio).
IL-1p Production in PMA-Differentiated THP-1 Cells Stimulated with Gramicidin.
THP-1 cells were purchased from the American Type Culture Collection and sub-cultured according to instructions from the supplier. […] Prior to the experiment, compounds were dissolved in dimethyl sulfoxide (DMSO) to generate a 30 mM stock. […] DMSO was backfilled in the plate to achieve a final DMSO assay concentration of 0.37%. The plate was then sealed and stored at room temperature until required.
THP-1 cells were treated with PMA (Phorbol 12-myristate 13-acetate) (20 ng/ml) for 16-18 hours. On the day of the experiment the media was removed and adherent cells were detached with trypsin for 5 minutes. […] The plates were incubated for 18 h at 4° C. and read using the preset HTRF program (donor emission at 620 nm, acceptor emission at 668 nm) of the SpectraMax i3x spectrophotometer (Molecular Devices, software SoftMax 6).

[1] = average IC50, given as numeric bound

T1 sequence (Q96P20 whole entry): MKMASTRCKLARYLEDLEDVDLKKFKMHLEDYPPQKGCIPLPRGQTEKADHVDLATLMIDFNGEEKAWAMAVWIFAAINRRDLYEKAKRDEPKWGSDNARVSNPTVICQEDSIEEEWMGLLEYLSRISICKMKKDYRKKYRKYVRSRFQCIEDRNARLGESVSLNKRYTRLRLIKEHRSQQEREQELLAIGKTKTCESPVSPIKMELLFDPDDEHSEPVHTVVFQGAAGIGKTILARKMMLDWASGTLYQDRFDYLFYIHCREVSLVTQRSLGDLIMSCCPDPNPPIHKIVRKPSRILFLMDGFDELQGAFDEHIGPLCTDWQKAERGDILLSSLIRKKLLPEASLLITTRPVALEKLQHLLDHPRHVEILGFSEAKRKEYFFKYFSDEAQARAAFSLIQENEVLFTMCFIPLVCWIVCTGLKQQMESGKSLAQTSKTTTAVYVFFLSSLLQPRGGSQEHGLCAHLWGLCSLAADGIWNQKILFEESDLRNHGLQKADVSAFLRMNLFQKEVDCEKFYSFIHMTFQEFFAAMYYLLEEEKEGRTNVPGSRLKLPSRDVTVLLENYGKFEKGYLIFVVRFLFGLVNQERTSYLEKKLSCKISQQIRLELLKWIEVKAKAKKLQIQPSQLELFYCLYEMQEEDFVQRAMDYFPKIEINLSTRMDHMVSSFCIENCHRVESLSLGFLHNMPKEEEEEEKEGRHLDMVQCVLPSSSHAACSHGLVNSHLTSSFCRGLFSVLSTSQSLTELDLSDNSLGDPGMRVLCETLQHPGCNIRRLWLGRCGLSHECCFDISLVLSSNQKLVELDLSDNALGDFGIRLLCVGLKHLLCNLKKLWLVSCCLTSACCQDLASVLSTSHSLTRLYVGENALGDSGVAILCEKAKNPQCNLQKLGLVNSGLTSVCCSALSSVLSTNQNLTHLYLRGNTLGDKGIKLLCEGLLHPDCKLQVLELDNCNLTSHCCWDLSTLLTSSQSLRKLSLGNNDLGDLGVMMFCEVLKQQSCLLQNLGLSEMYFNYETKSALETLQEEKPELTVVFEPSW

SMILES	IC50 (average IC50, class symbols) [nM]	IC50 [1] [nM]
Cc1cc(-c2cc(C(C)C)c(CC(=O)NS(=O)(=O)c3ccc(CN(C)C)cc3)c(C(C)C)c2)ccc1F [Compound 101]	200 to 1000	
CC(C)c1cc(-c2ccccc2OCc2ccccc2)cc(C(C)C)c1CC(=O)NS(=O)(=O)c1ccc(CN(C)C)cc1 [Compound 102, N-[4-[(dimethylamino)methyl]phenyl] sulfonyl-2-[4-(2-phenylmethoxy-phenyl)-2,6-di(propan-2-yl)phenyl]acetamide]	5000 to 30000	
CC(C)c1cc(-c2cnn(C)c2)cc(C(C)C)c1CC(=O)NS(=O)(=O)c1ccc(CN(C)C)cc1 [Compound 106, N-[4-[(dimethylamino)methyl]phenyl] sulfonyl-2-[4-(1-methylpyrazol-4-yl)-2,6-di(propan-2-yl)phenyl] acetamide]		> 30000
CC(C)c1cc(C2=CCCC2)cc(C(C)C)c1CC(=O)NS(=O)(=O)c1ccc(CN(C)C)cc1 [Compound 107, 2-[4-(cyclopenten-1-yl)-2,6-di(propan-2-yl)phenyl]-N-[4-[(dimethylamino)methyl]phenyl] sulfonylacetamide]	1000 to 5000	
CC(C)c1cc(-c2cccc(Cl)c2)cc(C(C)C)c1CC(=O)NS(=O)(=O)c1ccc(CN(C)C)cc1 [Compound 108, 2-[4-(3-chlorophenyl)-2,6-di(propan-2-yl)phenyl]-N-[4-[(dimethylamino)methyl]phenyl] sulfonylacetamide]	200 to 1000	
Cc1ccc(-c2cc(C(C)C)c(CC(=O)NS(=O)(=O)c3ccc(CN(C)C)cc3)c(C(C)C)c2)cc1 [Compound 110, N-[4-[(dimethylamino)methyl]phenyl] sulfonyl-2-[4-(4-methylphenyl)-2,6-di(propan-2-yl)phenyl] acetamide]	1000 to 5000	
Cc1ccc(-c2cc(C(C)C)c(CC(=O)NS(=O)(=O)c3ccc(CN(C)C)cc3)c(C(C)C)c2)cc1F [Compound 111, N-[4-[(dimethylamino)methyl]phenyl] sulfonyl-2-[4-(3-fluoro-4-methylphenyl)-2,6-di(propan-2-yl)phenyl]acetamide]	1000 to 5000	
CC(C)c1cc(-c2ccc(F)c(Cl)c2)cc(C(C)C)c1CC(=O)NS(=O)(=O)c1ccc(CN(C)C)cc1 [Compound 112, 2-[4-(3-chloro-4-fluorophenyl)-2,6-di(propan-2-yl)phenyl]-N-[4-[(dimethylamino)methyl]phenyl] sulfonylacetamide]	200 to 1000	
CC(C)c1cc(-c2ccc3c(c2)OC(F)(F)O3)cc(C(C)C)c1CC(=O)NS(=O)(=O)c1ccc(CN(C)C)cc1 [Compound 113, 2-[4-(2,2-difluoro-1,3-benzodioxol-5-yl)-2,6-di(propan-2-yl)phenyl]-N-[4-[(dimethylamino)methyl]phenyl] sulfonylacetamide]	200 to 1000	
CC(C)c1cc(-c2cccc3cccnc23)cc(C(C)C)c1CC(=O)NS(=O)(=O)c1ccc(CN(C)C)cc1 [Compound 114]	1000 to 5000	
CC(C)c1cc(-c2ccc3c(ccn3C(=O)OC(C)(C)C)c2)cc(C(C)C)c1CC(=O)NS(=O)(=O)c1ccc(CN(C)C)cc1 [Compound 115, tert-butyl 5-[4-[2-[[4-[(dimethylamino)methyl]phenyl]sulfonylamino]-2-oxoethyl]-3,5-di(propan-2-yl)phenyl]indole-1-carboxylate]	5000 to 30000	
CC(C)c1cc(-c2ccc(Cl)cc2)cc(C(C)C)c1CC(=O)NS(=O)(=O)c1ccc(CN(C)C)cc1 [Compound 116, 2-[4-(4-chlorophenyl)-2,6-di(propan-2-yl)phenyl]-N-[4-[(dimethylamino)methyl]phenyl] sulfonylacetamide]	1000 to 5000	
Cc1ccc(-c2cc(C(C)C)c(CC(=O)NS(=O)(=O)c3ccc(CN(C)C)cc3)c(C(C)C)c2)cc1Cl [Compound 117, 2-[4-(3-chloro-4-methylphenyl)-2,6-di(propan-2-yl)phenyl]-N-[4-[(dimethylamino)methyl]phenyl] sulfonylacetamide]	200 to 1000	
Cc1ccc(-c2cc(C(C)C)c(CC(=O)NS(=O)(=O)c3ccc(CN(C)C)cc3)c(C(C)C)c2)cc1C [Compound 118, N-[4-[(dimethylamino)methyl]phenyl] sulfonyl-2-[4-(3,4-dimethylphenyl)-2,6-di(propan-2-yl)phenyl]acetamide]	200 to 1000	
CC(C)c1cc(-c2ccc(Cl)c(Cl)c2)cc(C(C)C)c1CC(=O)NS(=O)(=O)c1ccc(CN(C)C)cc1 [Compound 119, 2-[4-(3,4-dichlorophenyl)-2,6-di(propan-2-yl)phenyl]-N-[4-[(dimethylamino)methyl]phenyl] sulfonylacetamide]	200 to 1000	
CC(C)c1cc(-c2ccc(Cl)c(F)c2)cc(C(C)C)c1CC(=O)NS(=O)(=O)c1ccc(CN(C)C)cc1 [Compound 120, 2-[4-(4-chloro-3-fluorophenyl)-2,6-di(propan-2-yl)phenyl]-N-[4-[(dimethylamino)methyl]phenyl] sulfonylacetamide]	1000 to 5000	
COc1ccccc1-c1cc(C(C)C)c(CC(=O)NS(=O)(=O)c2ccc(CN(C)C)cc2)c(C(C)C)c1 [Compound 121, N-[4-[(dimethylamino)methyl]phenyl] sulfonyl-2-[4-(2-methoxyphenyl)-2,6-di(propan-2-yl)phenyl] acetamide]	1000 to 5000	
CC(C)c1cc(C2=CCCN(C(=O)OC(C)(C)C)C2)cc(C(C)C)c1CC(=O)NS(=O)(=O)c1ccc(CN(C)C)cc1 [Compound 122, tert-butyl 5-[4-[2-[[4-[(dimethylamino)methyl]phenyl]sulfonylamino]-2-oxoethyl]-3,5-di(propan-2-yl)phenyl]-3,6-dihydro-2H-pyridine-1-carboxylate]		> 30000
CC(C)c1cc(-c2ccccc2CO)cc(C(C)C)c1CC(=O)NS(=O)(=O)c1ccc(CN(C)C)cc1 [Compound 124, N-[4-[(dimethylamino)methyl]phenyl] sulfonyl-2-[4-[2-(hydroxymethyl)phenyl]-2,6-di(propan-2-yl)phenyl]acetamide]	5000 to 30000	
CC(C)c1cc(-c2ccccc2S(C)(=O)=O)cc(C(C)C)c1CC(=O)NS(=O)(=O)c1ccc(CN(C)C)cc1 [Compound 125, N-[4-[(dimethylamino)methyl]phenyl] sulfonyl-2-[4-(2-methylsulfonyl-phenyl)-2,6-di(propan-2-yl)phenyl]acetamide]	5000 to 30000	
CC(C)c1cc(-c2ccc3ccccc3c2)cc(C(C)C)c1CC(=O)NS(=O)(=O)c1ccc(CN(C)C)cc1 [Compound 139, N-[4-[(dimethylamino)methyl]phenyl] sulfonyl-2-[4-naphthalen-2-yl-2,6-di(propan-2-yl)phenyl] acetamide]	40 to 200	
C/C=C(\C)c1cc(C(C)C)c(CC(=O)NS(=O)(=O)c2ccc(CN(C)C)cc2)c(C(C)C)c1 [Compound 145]	1000 to 5000	
Cc1cc(-c2cc(C(C)C)c(CC(=O)NS(=O)(=O)c3ccc(CN(C)C)cc3)c(C(C)C)c2)ccc1Cl [Compound 146]	200 to 1000	
C=C(C)c1cc(C(C)C)c(CC(=O)NS(=O)(=O)c2ccc(CN(C)C)cc2)c(C(C)C)c1 [Compound 147]	1000 to 5000	
CC(C)c1cc(Br)cc(C(C)C)c1CC(=O)NS(=O)(=O)c1ccc(CN(C)C)cc1 [Compound 148]	1000 to 5000	
CC(C)c1cc(Cl)cc(C(C)C)c1CC(=O)NS(=O)(=O)c1ccc(CN(C)C)cc1 [Compound 149]	1000 to 5000	
CC(C)c1cc(C#CC2CCOCC2)cc(C(C)C)c1CC(=O)NS(=O)(=O)c1ccc(CN(C)C)cc1 [Compound 313, N-{4-[(dimethylamino)methyl]benzene-sulfonyl}-2-{4-[2-(oxan-4-yl)ethynyl]-2,6-bis(propan-2-yl)phenyl}acetamide]	1000 to 5000	
CC(C)c1cc(C2CCc3ccccc3C2)cc(C(C)C)c1CC(=O)NS(=O)(=O)c1ccc(CN(C)C)cc1 (stereo not drawn) [Compound 314, 2-[2,6-bis(propan-2-yl)-4-(1,2,3,4-tetrahydronaphthalen-2-yl)phenyl]-N-{4-[(dimethylamino)methyl]benzene-sulfonyl}acetamide]	1000 to 5000	
CC(C)c1cc(C2CCOC2)cc(C(C)C)c1CC(=O)NS(=O)(=O)c1ccc(CN(C)C)cc1 (stereo not drawn) [Compound 315, N-{4-[(dimethylamino)methyl]benzene-sulfonyl}-2-[4-(oxolan-3-yl)-2,6-bis(propan-2-yl)phenyl]acetamide]		> 30000
CC(C)c1cc(C2CCC(C)(C)CC2)cc(C(C)C)c1CC(=O)NS(=O)(=O)c1ccc(CN(C)C)cc1 [Compound 316, N-{4-[(dimethylamino)methyl]benzene-sulfonyl}-2-[4-(4,4-dimethylcyclohexyl)-2,6-bis(propan-2-yl)phenyl]acetamide]	1000 to 5000	
